Measurements from PubChem BioAssay (NCI).
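How tested: cells in 96-well plates exposed to compound for 48 hours at five concentrations. Abbreviation: GI50, concentration required for 50% inhibition of growth. TGI: concentration producing complete growth inhibition.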

Legend:
Test in all cases: NCI anticancer screen, dose series, 48 h
MOLT-4 leukemia = tested on: MOLT-4 leukemia
K-562 leukemia = tested on: K-562 leukemia
OVCAR-8 ovarian = tested on: OVCAR-8 ovarian
HS 578T breast = tested on: HS 578T breast
MDA-MB-435 = tested on: MDA-MB-435
SW-620 colon = tested on: SW-620 colon
SK-MEL-2 melanoma = tested on: SK-MEL-2 melanoma
OVCAR-5 ovarian = tested on: OVCAR-5 ovarian
MALME-3M melanoma = tested on: MALME-3M melanoma
BT-549 breast = tested on: BT-549 breast

Row | Compound | GI50 (MOLT-4 leukemia) [nM] | TGI (MOLT-4 leukemia) [µM] | GI50 (K-562 leukemia) [nM] | TGI (K-562 leukemia) [µM] | GI50 (OVCAR-8 ovarian) [nM] | TGI (OVCAR-8 ovarian) [µM] | GI50 (HS 578T breast) [nM] | TGI (HS 578T breast) [µM] | GI50 (MDA-MB-435) [nM] | TGI (MDA-MB-435) [µM] | GI50 (SW-620 colon) [nM] | TGI (SW-620 colon) [µM] | GI50 (SK-MEL-2 melanoma) [µM] | TGI (SK-MEL-2 melanoma) [µM] | GI50 (OVCAR-5 ovarian) [µM] | TGI (OVCAR-5 ovarian) [µM] | GI50 (MALME-3M melanoma) [nM] | TGI (MALME-3M melanoma) [µM] | GI50 (BT-549 breast) [nM] | TGI (BT-549 breast) [µM]
1 | CCCCCCNC(=O)Oc1ccc(/C(=C(\C)c2ccccc2)c2ccc(OCCN(CC)CC)cc2)cc1 | 1780 | 7.79 | 1360 | 5.31 | 6020 | 12.9 | 2920 | 11.7 | 3570 | 10.1 | 1300 | 3.26 | 7.5 | 14.8 | 6.71 | 13.2 | 3590 | 10.1 | 6050 | 12.5
2 | NS(=O)(=O)c1ccc(NC(=O)Nc2ccccc2F)cc1 |  | > 100 |  | > 100 |  | > 100 |  | > 100 |  | > 100 |  | > 100 |  | > 100 |  | > 100 |  | > 100 |  | > 100
3 | CCOC(=O)c1ccccc1-c1c2ccc(=[N+](C)C)cc-2oc2cc(N(C)C)ccc12 | 488 | 35.7 | 145 | > 35.1 | 195 | > 22.8 | 548 | 51.2 | 255 | 5.71 | 261 | 17.4 | 0.579 | 4.1 | 0.537 | > 39.6 | 333 | 7.62 | 178 | 2.77
4 | COC(=O)[C@]12CC[C@@H](C)[C@H](C)[C@@H]1C1=CC[C@@H]3[C@@]4(C)CC(=O)[C@H](OC(=O)c5ccco5)[C@@]5(C)COC(=C45)C[C@@]3(C)[C@]1(C)CC2 | 669 | > 100 | 413 | > 100 | 2470 | > 100 | > 100000 | > 100 | 763 | > 100 | 902 | > 100 | 5.63 | > 100 | > 100 | > 100 | 556 | > 100 | 2910 | > 100
5 | O=[As]c1ccc(C(=O)c2ccc(Oc3ccccc3)cc2)cc1 (stereo not drawn) | 33.3 | 0.19 | 18.8 | 0.117 | 38.9 | 0.146 | 129 |  | 39.6 | 0.176 | 24.8 | 0.111 | 0.118 | 0.287 | 0.129 | 0.264 | 68 | 0.271 | 135 | 0.278
6 | CCOC(=O)Cc1csc(NC(=O)COC(=O)c2ccc(OC)cc2)n1 |  | > 35.6 | 1160 | > 60.9 | 47500 | > 73.2 | > 100000 | > 100 | > 100000 | > 100 | > 96100 | > 100 | > 100 | > 100 | > 51.3 | > 83.8 | 64900 | > 100 | 24700 | 66.3
